# Measurements reported in patent publication US10959992B2, “Methods of treatment of asthma and COPD” (Bridge Pharma, Inc., priority 2019, dated 2021).
# What was measured:
# PAF-induced eosinophilia = assay: PAF-induced pulmonary eosinophil accumulation after continuous subcutaneous dosing; type: in vivo, Sprague-Dawley rats; settings: sc 1.0 mg/kg/day for six days, PAF-treated rats
# Procedure: Male Sprague-Dawley rats, 400-600 g, were used in these studies.
# The study described here used subcutaneous administration of norketotifen and ketotifen by Alzet® osmotic pumps. The rats were administered either RS-norketotifen hydrogen fumarate (1.0 mg/kg/day) or RS-ketotifen hydrogen fumarate (1.0 mg/kg/day) or saline. After five days of sc infusions of test articles and the vehicle, the animals were injected, i.p. with 10 μg PAF (platelet aggregating factor) in 0.25% bovine serum albumin (BSA) in saline. The subcutaneous infusions of test articles or vehicle were continued for another twenty-four hours and the animals were then sacrificed by intraperitoneal injections of a barbiturate. The tracheae of the euthanized animals were exposed and cannulated and aliquots (6×10 ml) of a Tyrode solution were successively introduced into the lungs and aspirated by gentle compression of the thorax. The total recovery of lung fluid was usually above 80%. The cell suspensions were concentrated by low speed centrifugation (200 g for 10 min) and the resulting cell pellet was resuspended in 1 ml of a Tyrode solution. Total cell counts were performed after dilution in Turks fluid, fixation in methanol and Leishman staining.
# The study shown here used norketotifen, ketotifen, and saline (control) after continuous dosing with Alzet® Osmotic pumps.
# [1] = test system: oxazolone-induced increase in ear thickness; assay: Oxazolone test of immunosuppression (ear thickness); type: in vivo, BALB/c mice; settings: for Increase in ear thickness (mm): control 0.153; for Increase in ear thickness (%): control 100.0
# Procedure: Male BALB/c mice, 20-24 grams, 7-12 weeks, were used. The sensitization dosing (Day 1) consisted of painting the ventral portion of the pre-shaved abdominal skin with 0.1 ml of 3.0% oxazolone in 70% ethanol. Test articles were administered orally in 1.0% methyl-cellulose, starting on Day 1 and continuing for 10 consecutive days. The challenge dosing consisted of the application of 0.05 ml of 3.0% oxazolone in 70% ethanol on both sides of the outer pinna of the right ear. The thickness of both ears of all animals was measured with a calliper before the challenge dose and 24 hours after the administration of the challenge dose (Day 10). The ear thickness of untreated mice was 0.19 to 0.20 mm.
# Justification of the model: The classic oxazolone test method was used with minor modifications. This method has been used for over 40 years in numerous drug development projects.
# [2] = test system: croton oil-induced ear swelling; assay: Croton oil-induced ear swelling; type: in vivo, CD-1 female mice; design: Average ear thickness: unit not given beside the values; settings: for Average ear thickness: single oral dose 10 mg/kg 60 min before
# Procedure: The effects of NK, PRED and the vehicle (5% PEG in water) were tested orally in CD-1 female mice. Under the test protocol, 20 μl of 1.0% croton oil in acetone was applied topically to both ears of three groups of mice, each group consisting of 6 mice. No attempt was made to remove the croton oil solution since the solvent evaporated within 30 seconds. The oral doses of NK and PRED were 10 mg/kg (10 ml/kg) bodyweight for both compounds and were administered 60 min before the croton oil applications. Vehicle-treated mice were dosed 10 ml/kg of water, containing 5% polyethylene glycol (PEG), which was also the solvent for the test articles. Ear thickness was measured with an electronic caliper and mean ear thickness (N=12; right+left ears) were calculated and compared with the thickness of ears from vehicle-treated mice (Student's t-test).
# Aspergillus fumigatus = assay: Antimicrobial activity (MIC), Aspergillus fumigatus; type: cell-based; settings: Fungi: Af, MIC refers to lethal concentrations
# Malassezia pachydermatis = assay: Antimicrobial activity (MIC), Malassezia pachydermatis; type: cell-based; settings: Fungi: Mp, MIC refers to lethal concentrations
# Candida albicans = assay: Antimicrobial activity (MIC), Candida albicans; type: cell-based; settings: Fungi: Ca, MIC refers to lethal concentrations
# Trichophyton rubrum = assay: Antimicrobial activity (MIC), Trichophyton rubrum; type: cell-based; settings: Mold: Tr, MIC refers to lethal concentrations
# [3] = test system: Trichophyton interdigitale; assay: Antimicrobial activity (MIC), Trichophyton interdigitale; type: cell-based; settings: Mold: Ti, MIC refers to lethal concentrations
# Staphylococcus aureus = assay: Antimicrobial activity (MIC), Staphylococcus aureus; type: cell-based; settings: Bacteria: Sa, MIC refers to lethal concentrations
# [4] = test system: Staphylococcus intermedius; assay: Antimicrobial activity (MIC), Staphylococcus intermedius; type: cell-based; settings: Bacteria: Si, MIC refers to lethal concentrations
# Klebsiella pnemoniae = assay: Antimicrobial activity (MIC), Klebsiella pnemoniae; type: cell-based; settings: Bacteria: Kp, MIC refers to lethal concentrations
# IL-4 = assay: PHA-induced release of IL-4 from human buffy coats; type: cell-based; settings: PHA 5 μg/ml, 16 hours, inhibition
# Procedure: (§1) The study was conducted in two phases. The first phase included optimization of the test methodology and included also dose-range finding studies, using buffy coats from 3 human donors, stimulated with phytohemagglutinin (PHA). The concentrations of the test article and the duration of exposure were optimized to obtain acceptable dose-response ratios. Following optimization of the test conditions, a final protocol was issued. In the Main Study, buffy coats from 5 healthy human male donors were stimulated with PHA, 5 μg/ml.
# (§2) The inhibitory effects of three concentrations of NK and one concentration of ketotifen were evaluated in the Main Study. The buffy coats were resuspended in assay media and were pre-incubated for 30 min with either vehicle/saline, ketotifen (10 μM) or norketotifen (1.0; 10 or 100 μM). Following these preincubations, the white blood cell suspensions were stimulated for 16 hours with PHA, 5 μg/ml. The cell system supernatants were then harvested and stored frozen.
# IL-1β = assay: PHA-induced release of IL-1β from human buffy coats; type: cell-based; settings: PHA 5 μg/ml, 16 hours, inhibition
# Procedure: as §1, §2
# IFN-γ = assay: PHA-induced release of IFN-γ from human buffy coats; type: cell-based; settings: PHA 5 μg/ml, 16 hours, inhibition
# Procedure: as §1, §2
# IL-13 = assay: PHA-induced release of IL-13 from human buffy coats; type: cell-based; settings: PHA 5 μg/ml, 16 hours, inhibition
# Procedure: as §1, §2
# immune system = assay: Repeat-dose toxicology studies, signs of immune system suppression; type: in vivo; settings: repeat-dose toxicology studies: hematology, clinical chemistry, histopathology, organ and body weight indicators
# sedation = settings: orally administered, dogs; U.S. Pat. No. 8,557,846; cited from earlier work
# [5] = 10.0 mg/kg/day oral for 10 days
# [6] = 30.0 mg/kg/day oral for 10 days
structure (smiles),measurement,setting,value
O=C1Cc2ccccc2C(=C2CCNCC2)c2ccsc21 (racemic) [norketotifen],Reduction of eosinophil counts below the baseline (saline control) level,PAF-induced eosinophilia,26%
same,Immunosuppression (%),[1]; [5],3.9%
same,Increase in ear thickness (mm),[1]; [5],0.147 mm
same,Increase in ear thickness (%),[1]; [5],96.1%
same,Immunosuppression (%),[1]; [6],8.5%
same,Increase in ear thickness (mm),[1]; [6],0.140 mm
same,Increase in ear thickness (%),[1]; [6],91.5%
same,Immuno-suppressant activity (conclusion in words),"[1]; daily oral dosing for 10 days to mice, RS-norketotifen 10 or 30 mg/kg, prednisolone at 10 times lower doses",did not induce immuno-suppressant activity
same,Average ear thickness,"[2]; 0 (predose) min after croton oil, vehicle 0.21 ± 0.02",0.21 ± 0.02
same,Average ear thickness,"[2]; 90 min after croton oil, vehicle 0.29 ± 0.04",0.24 ± 0.02
same,Average ear thickness,"[2]; 120 min after croton oil, vehicle 0.28 ± 0.02",0.25 ± 0.02
same,Anti-inflammatory effect compared with vehicle control group (conclusion in words),"[2]; single oral dose 10 mg/kg, croton oil ear swelling in mice",statistically significant anti-inflammatory effects
same,MIC,Aspergillus fumigatus,4000 µg/mL
same,MIC,Malassezia pachydermatis,1000 µg/mL
same,MIC,Candida albicans,1000 µg/mL
same,MIC,Trichophyton rubrum,500 µg/mL
same,MIC,[3],500 µg/mL
same,MIC,Staphylococcus aureus,500 µg/mL
same,MIC,[4],250 µg/mL
same,MIC,Klebsiella pnemoniae,500 µg/mL
same,Effect on PHA-induced release of IL-4 (%),IL-4; 1 uM,0.00%
same,Effect on PHA-induced release of IL-4 (%),IL-4; 10 uM,14.32%
same,Effect on PHA-induced release of IL-4 (%),IL-4; 100 uM,98.27^1%
same,Effect on PHA-induced release of IL-1β (%),IL-1β; 1 uM,0.00%
same,Effect on PHA-induced release of IL-1β (%),IL-1β; 10 uM,16.20%
same,Effect on PHA-induced release of IL-1β (%),IL-1β; 100 uM,57.00^1%
same,Effect on PHA-induced release of IFN-γ (%),IFN-γ; 1 uM,0.00%
same,Effect on PHA-induced release of IFN-γ (%),IFN-γ; 10 uM,16.54^2%
same,Effect on PHA-induced release of IFN-γ (%),IFN-γ; 100 uM,71.56^1%
same,Effect on PHA-induced release of IL-13 (%),IL-13; 1 uM,0.00%
same,Effect on PHA-induced release of IL-13 (%),IL-13; 10 uM,34.49^1%
same,Effect on PHA-induced release of IL-13 (%),IL-13; 100 uM,74.25^1%
same,Signs of immune system suppression,immune system,no signs of immune system suppression
same,Sedative side effects,sedation,free from sedative side effects
